Experiments:
large crabgrass = experiment: Test B pre-/postemergence herbicide test; assay type: in vivo, Digitaria sanguinalis; settings: for Plant response rating (0 to 100 scale), Crabgrass, Large: 0 is no effect, 100 is complete control, preemergence
In short: (§1)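 Plants compared with untreated controls 13–15 days post-treatment and given a visual 0–100 injury score. Applications: preemergence to seeds; postemergence at 1- to 4-leaf (2–18 cm); paddy species flooded, 2-leaf stage. Vehicle non-phytotoxic, surfactant included.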

[1] = system: small flower umbrella sedge; experiment: Test B flooded paddy test; assay type: in vivo, Cyperus difformis; settings: scale 0 to 100 (0 no effect, 100 complete control)
In short: (§2)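 After treating 2-leaf paddy plants or 2–18 cm postemergence plants (1 to 4 leaves) with formulated chemical, researchers kept them in a greenhouse for 13–15 days. Effects were judged visually versus controls: 0 indicates none, 100 total control.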

pigweed = experiment: Test B pre-/postemergence herbicide test; assay type: in vivo, Amaranthus retroflexus; settings: for Plant response rating (0 to 100 scale), Pigweed: 0 is no effect, 100 is complete control, preemergence
In short: as §1

velvetleaf = experiment: Test B pre-/postemergence herbicide test; assay type: in vivo, Abutilon theophrasti; settings: for Plant response rating (0 to 100 scale), Velvetleaf: 0 is no effect, 100 is complete control, preemergence
In short: as §1

giant foxtail = experiment: Test B pre-/postemergence herbicide test; assay type: in vivo, Setaria faberi; settings: for Plant response rating (0 to 100 scale), Foxtail, Giant: 0 is no effect, 100 is complete control, preemergence
In short: as §1

rice = experiment: Test B flooded paddy test; assay type: in vivo, Oryza sativa; settings: scale 0 to 100 (0 no effect, 100 complete control)
In short: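 Formulated test chemicals went onto postemergence plants measuring 2 to 18 cm, at one to four leaves. For the paddy assay, species had reached two leaves. Scoring took place 13–15 days later by eye, relative to untreated plants, using 0 for no effect up to 100 for full control.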

barnyardgrass [2] = experiment: Test B pre-/postemergence herbicide test; assay type: in vivo, Echinochloa crus-galli; settings: for Plant response rating (0 to 100 scale), Barnyardgrass: 0 is no effect, 100 is complete control, preemergence; for Barnyardgrass plant response rating: Postemergence, scale 0 (no effect) to 100 (complete control)
In short: (§3)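 Flooded paddy rice and barnyardgrass were treated at the 2-leaf stage; upland plantings received compound either on sown seed or on 1- to 4-leaf seedlings. All were kept 13–15 days in a greenhouse and scored visually, 0–100, relative to untreated plants.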

cocklebur = experiment: Test B pre-/postemergence herbicide test; assay type: in vivo, Xanthium strumarium; settings: for Plant response rating (0 to 100 scale), Cocklebur: 0 is no effect, 100 is complete control, preemergence
In short: as §3

corn = experiment: Test B pre-/postemergence herbicide test; assay type: in vivo, Zea mays; settings: for Plant response rating (0 to 100 scale), Corn: 0 is no effect, 100 is complete control, preemergence
In short: as §1

morningglory = experiment: Test B pre-/postemergence herbicide test; assay type: in vivo, Ipomoea coccinea; settings: for Plant response rating (0 to 100 scale), Morningglory: 0 is no effect, 100 is complete control, preemergence
In short: as §3

ducksalad = experiment: Test B flooded paddy test; assay type: in vivo, Heteranthera limosa; settings: scale 0 to 100 (0 no effect, 100 complete control)
In short: as §2

blackgrass = experiment: Test B postemergence herbicide test; assay type: in vivo, Alopecurus myosuroides
In short: as §2

barnyardgrass [3] = experiment: Test B flooded paddy test; assay type: in vivo, Echinochloa crus-galli; settings: scale 0 to 100 (0 no effect, 100 complete control)
In short: as §2

wild oat = experiment: Test B postemergence herbicide test; assay type: in vivo, Avena fatua
In short: (§4)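 Treated at 2-leaf (paddy) or 1–4-leaf, 2–18 cm (postemergence); greenhouse 13–15 d; visual score vs control, 0 none to 100 complete control; dash = not tested.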

Surinam grass = experiment: Test B pre-/postemergence herbicide test; assay type: in vivo, Urochloa decumbens; settings: for Plant response rating (0 to 100 scale), Surinam Grass: 0 is no effect, 100 is complete control, preemergence
In short: as §1

lambsquarters = experiment: Test B pre-/postemergence herbicide test; assay type: in vivo, Chenopodium album; settings: for Plant response rating (0 to 100 scale), Lambsquarters: 0 is no effect, 100 is complete control, preemergence
In short: as §1

wheat = experiment: Test B postemergence herbicide test; assay type: in vivo, Triticum aestivum; parameters: key to Wheat plant response rating: 0 = no effect, 100 = complete control
In short: as §4

[4] = Postemergence, 500 g ai/ha, scale 0 (no effect) to 100 (complete control)
[5] = postemergence, 125 g ai/ha, scale 0 to 100
[6] = 500 g ai/ha, scale 0 to 100, 0 no effect, 100 complete control, preemergence

SMILES: CCN(CC)C(=O)c1cncc(NC(=O)c2nn(C(C)(C)C)nc2C)c1 [Compound 428]
- Plant response rating (0 to 100 scale), Crabgrass, Large (large crabgrass; 125 g ai/ha): 0
- Crabgrass, Large plant response rating (large crabgrass; [4]): 20
- Crabgrass, Large plant response rating (large crabgrass; [5]): 10
- Sedge, Umbrella plant response rating ([1]; 1000 g ai/ha): 0
- Plant response rating (0 to 100 scale), Pigweed (pigweed; 125 g ai/ha): 30
- Pigweed plant response rating (pigweed; [4]): 30
- Pigweed plant response rating (pigweed; [5]): 20
- Plant response rating (0 to 100 scale), Velvetleaf (velvetleaf; 125 g ai/ha): 0
- Velvetleaf plant response rating (velvetleaf; [4]): 20
- Velvetleaf plant response rating (velvetleaf; [5]): 10
- Plant response rating (0 to 100 scale), Foxtail, Giant (giant foxtail; 125 g ai/ha): 0
- Foxtail, Giant plant response rating (giant foxtail; [4]): 10
- Foxtail, Giant plant response rating (giant foxtail; [5]): 10
- Rice plant response rating (rice; 1000 g ai/ha): 30
- Plant response rating (0 to 100 scale), Barnyardgrass (barnyardgrass [2]; 125 g ai/ha): 0
- Barnyardgrass plant response rating (barnyardgrass [2]; 125 g ai/ha): 0
- Barnyardgrass plant response rating (barnyardgrass [2]; 500 g ai/ha): 10
- Plant response rating (0 to 100 scale), Cocklebur (cocklebur; 125 g ai/ha): 0
- Cocklebur plant response rating (cocklebur; [4]): 10
- Cocklebur plant response rating (cocklebur; [5]): 0
- Plant response rating (0 to 100 scale), Corn (corn; 125 g ai/ha): 0
- Corn plant response rating (corn; [4]): 10
- Corn plant response rating (corn; [5]): 0
- Plant response rating (0 to 100 scale), Morningglory (morningglory; 125 g ai/ha): 0
- Morningglory plant response rating (morningglory; [4]): 30
- Morningglory plant response rating (morningglory; [5]): 20
- Ducksalad plant response rating (ducksalad; 1000 g ai/ha): 0
- Blackgrass plant response rating (blackgrass; [4]): 0
- Blackgrass plant response rating (blackgrass; [5]): 0
- Barnyardgrass plant response rating (barnyardgrass [3]; 1000 g ai/ha): 0
- Oat, Wild plant response rating (wild oat; [4]): 0
- Oat, Wild plant response rating (wild oat; [5]): 0
- Plant response rating (0 to 100 scale), Surinam Grass (Surinam grass; 125 g ai/ha): 0
- Surinam Grass plant response rating (Surinam grass; [4]): 20
- Surinam Grass plant response rating (Surinam grass; [5]): 10
- Plant response rating (0 to 100 scale), Lambsquarters (lambsquarters; 125 g ai/ha): 0
- Lambsquarters plant response rating (lambsquarters; [4]): 40
- Lambsquarters plant response rating (lambsquarters; [5]): 10
- Wheat plant response rating (wheat; [6]): 0
- Wheat plant response rating (wheat; [4]): 0
- Wheat plant response rating (wheat; [5]): 0

SMILES: CCOC(=O)c1cccc(NC(=O)c2nn(C(C)(C)C)nc2Br)c1 [Compound 432]
- Plant response rating (0 to 100 scale), Crabgrass, Large (large crabgrass; 125 g ai/ha): 30
- Crabgrass, Large plant response rating (large crabgrass; [4]): 30
- Crabgrass, Large plant response rating (large crabgrass; [5]): 10
- Sedge, Umbrella plant response rating ([1]; 125 g ai/ha): 80
- Plant response rating (0 to 100 scale), Pigweed (pigweed; 125 g ai/ha): 0
- Pigweed plant response rating (pigweed; [4]): 10
- Pigweed plant response rating (pigweed; [5]): 0
- Plant response rating (0 to 100 scale), Velvetleaf (velvetleaf; 125 g ai/ha): 0
- Velvetleaf plant response rating (velvetleaf; [4]): 60
- Velvetleaf plant response rating (velvetleaf; [5]): 50
- Plant response rating (0 to 100 scale), Foxtail, Giant (giant foxtail; 125 g ai/ha): 40
- Foxtail, Giant plant response rating (giant foxtail; [4]): 40
- Foxtail, Giant plant response rating (giant foxtail; [5]): 0
- Rice plant response rating (rice; 125 g ai/ha): 0
- Plant response rating (0 to 100 scale), Barnyardgrass (barnyardgrass [2]; 125 g ai/ha): 10
- Barnyardgrass plant response rating (barnyardgrass [2]; 125 g ai/ha): 20
- Barnyardgrass plant response rating (barnyardgrass [2]; 500 g ai/ha): 60
- Plant response rating (0 to 100 scale), Cocklebur (cocklebur; 125 g ai/ha): 0
- Cocklebur plant response rating (cocklebur; [4]): 70
- Cocklebur plant response rating (cocklebur; [5]): 40
- Plant response rating (0 to 100 scale), Corn (corn; 125 g ai/ha): 0
- Corn plant response rating (corn; [4]): 30
- Corn plant response rating (corn; [5]): 30
- Plant response rating (0 to 100 scale), Morningglory (morningglory; 125 g ai/ha): 0
- Morningglory plant response rating (morningglory; [4]): 30
- Morningglory plant response rating (morningglory; [5]): 20
- Ducksalad plant response rating (ducksalad; 125 g ai/ha): 30
- Blackgrass plant response rating (blackgrass; [4]): 40
- Blackgrass plant response rating (blackgrass; [5]): 40
- Barnyardgrass plant response rating (barnyardgrass [3]; 125 g ai/ha): 30
- Oat, Wild plant response rating (wild oat; [4]): 60
- Oat, Wild plant response rating (wild oat; [5]): 50
- Plant response rating (0 to 100 scale), Surinam Grass (Surinam grass; 125 g ai/ha): 10
- Surinam Grass plant response rating (Surinam grass; [4]): 70
- Surinam Grass plant response rating (Surinam grass; [5]): 10
- Plant response rating (0 to 100 scale), Lambsquarters (lambsquarters; 125 g ai/ha): 0
- Lambsquarters plant response rating (lambsquarters; [4]): 30
- Lambsquarters plant response rating (lambsquarters; [5]): 0
- Wheat plant response rating (wheat; [6]): 0
- Wheat plant response rating (wheat; [4]): 60
- Wheat plant response rating (wheat; [5]): 50

— patent US20060069132A1, “Azolecarboxamide herbicides” (priority 2004, published 2006)
